# Assay results: patent publication US8293240B2, “Method of treating drug-resistant cancer” (The Regents of the University of Colorado, priority 2004, dated 2012)
# What was measured:
# [1] = tested on: B16F1 melanoma cells; test: mitochondrial membrane potential (Mitotracker Red) in B16F1 melanoma cells; type: cell-based, mouse; settings: B16F1, 48 hours, FIG. 20
# Protocol: Metabolic Activity Assay. Cells were prepared as previously described. The specific metabolic dye was added and mixed into the cell suspension. This plate was then placed into the 37° incubator for a 20-minute incubation. After incubation, the cells were centrifuged at 300×g for 5 minutes, and the supernatant was removed. The cells were then washed once with PBS/2.5% FBS and transferred into flow cytometric tubes containing 500 μL of PBS/2.5% FBS for analysis.
# MitoTracker Red CM-H2XROS (Molecular Probes). One vial of MitoTracker Red provides 10 tests and contains 50 μg. This is unstable and can't be stored. Therefore, when each vial was opened, 43 μL of Dimethysulfoxide (DMSO) were added. […]
# B16F1 melanoma cells were cultured at a concentration of 0.5 to 1 million cells per ml. Cells were harvested and analyzed by flow cytometry. […] Five thousand cells were assessed for forward scatter (FS), as a function of cell size, versus side scatter (SS), as a function of cellular granularity. […]
# B16F1 melanoma cells of Example 12 were untreated or treated with etomoxir at the indicated concentrations for 48 hours. Cells were harvested, stained with Mitotracker Red (Molecular Probes) as described in Materials and Methods, and analyzed by flow cytometry. The value of Mitotracker Red was then calculated as described in Materials and Methods.
# [2] = tested on: L1210 DDP cells; test: mitochondrial membrane potential (MitoTracker), L1210 DDP; type: cell-based; settings: 24 hours of incubation, FIG. 11
# Protocol: (§1) Flow Cytometry. Cells were harvested, counted, and resuspended at 10^6 cells/100 μl of PBS containing 2.5% fetal calf serum in preparation for flow cytometric analysis. Cells were stained for intracellular H202 using 6-carboxy-2′,7′-dichlorodihydrofluorescein diacetate (DCF-DA, Molecular Probes, Eugene, Oreg.). Briefly, cells were incubated at 37° with 1 mM DCF-DA for 20 minutes, washed twice in PBS containing 2.5% fetal calf serum and analyzed flow cytometrically. Mitochondrial membrane potential was assessed using Mitotracker Red (CM-H2XROS, Molecular Probes, Eugene, Oreg.). […] The cells were incubated at 37° for 20 minutes, washed twice in PBS containing 2.5% fetal calf serum and analyzed flow cytometrically. Data were acquired on a Coulter Elite Epics or Excel flow cytometer (Coulter, Hialeah, Fla.) and analyzed with CellQuest software, (Becton Dickinson, San Jose, Calif.). […] Each sample population was classified for cell size (forward scatter) and complexity (side scatter), gated on a population of interest and evaluated using 5,000 cells. […]
# (§2) We measured the effects of etomoxir on metabolism by measuring mitochondrial membrane potential with a fluorescent dye (Mitotracker Red, Molecular Probes, Eugene, Oreg.) which fluoresces as a function of mitochondrial potential. […]
# [3] = tested on: HL60 MDR tumor; test: tumor volume of HL60 MDR tumor implanted in nude mice; type: in vivo; settings: for tumor volume: 200 ug Etomoxir, 2.5 mM 2-Deoxy-D-glucose
# Excerpt: Tumor implantation. Mice were purchased from the Animal Production Program of National Cancer Institute, Frederick, Md. The animals used were Athymic Ncr-nu/nu (strain code 01B74). HL60 MDR cells were harvested and reconstituted at 1 million cells per 100 microliters of phosphate buffered saline. One million tumor cells per injection site were implanted subcutaneously on two sites of the animal's back. Treatments began at exactly seven days post tumor implantation. Tumor size/volume was monitored twice weekly using measurement calipers, with the formula Tumor Volume=π×(short diameter)^2×(long diameter)/6.
# Mice experiments with fatty acid metabolism and glucose metabolism inhibitors. Fatty acid metabolism inhibitors were exemplified by etomoxir at 200 micrograms/day. Glucose metabolism inhibitors were exemplified by 2-deoxy-D-glucose at 2.5 mM in 100 microliters daily. The combination was administered daily, etomoxir at 200 micrograms and 2-deoxy-D-glucose at 2.5 mM in 100 microliters. All drugs were administered intra-peritoneally. Fluorouracil, at 20 mg per kilogram mouse, was injected intra-peritoneally once a week
# HL60 MDR human leukemia cells were cultured and implanted in nude mice as described above under “Materials and Methods”. The mice were given 200 ug of Etomoxir, 2.5 mM 2-Deoxy-D-glucose, or both 200 ug of Etomoxir and 2.5 mM 2-Deoxy-D-glucose given daily by IP injection. Treatment began exactly one week after tumor implantation.
# Mice were purchased from National Cancer Institute, Animal Production Program (Frederick, Md.). The animals used were Athymic Ncr-nu/nu (Strain code 01B74). HL60 MDR cells were harvested and reconstituted at 1 million cells per 100 microliters of phosphate buffered saline. One million tumor cells/per injection site were implanted subcutaneously on two sites of the animal's back. Treatments began at exactly seven days post tumor implantation. Tumor size/volume was monitored twice weekly using measurement calipers with the formula for Tumor Volume=π(short diameter)^2(long diameter)/(divided by )6. […]
# [4] = tested on: L1210 cells; test: DCFDA staining (reactive intermediates), L1210; type: cell-based; settings: L1210, 24 hours of incubation, FIG. 12A
# Protocol: as §1, §2
smiles,measurement,setting,value
"CCOC(=O)C1(CCCCCCOc2ccc(Cl)cc2)CO1 (centres unmarked) [etomoxir, 2-(6-(4-chlorophenoxy)-hexyl)-oxirane-2-carboxylic acid ethyl ester]",mitochondrial membrane potential as measured by Mitotracker Red,[1],increase in mitochondrial membrane potential
same,mitochondrial membrane potential (MitoTracker),[2],increase the mitochondrial membrane potential
same,tumor volume,"[3]; Day 7, daily IP from one week after implantation",36 mm^3
same,tumor volume,"[3]; Day 9, daily IP",71.73 mm^3
same,tumor volume,"[3]; Day 15, daily IP",261.35 mm^3
same,tumor volume,"[3]; Day 21, daily IP",895.09 mm^3
same,effect on tumor growth,"[3]; HL60 MDR in nude mice, 21 day period, single agent",increase in tumor growth
same,"free radicals (reactive intermediates), DCFDA staining",[4],increase in free radicals
